Measurements reported in patent US9120791B2, “Indolizine compounds, a process for their preparation and pharmaceutical compositions containing them” (LES LABORATOIRES SERVIER, priority 2012, dated 2015).
Structures can show the parent of a compound that is named as a salt.

Columns and labels:
Bcl-2 protein = Bcl-2 protein (Homo sapiens (Human), UniProt P10415); assay: Inhibition of Bcl-2 by the fluorescence polarisation technique; format: binding; settings: fluorescence polarisation test; concentration that inhibits fluorescence polarisation by 50%; read-out: IC50 (nM) Bcl-2 FP
Protocol: The fluorescence polarisation tests were carried out on microplates (384 wells). […] After incubation for 2 hours, the fluorescence polarisation is measured.

[1] = system: RS4;11 leukaemia tumour line; assay: In vitro cytotoxicity (Microculture Tetrazolium Assay, 48 hours); format: cell-based; settings: Homo sapiens, RS4;11 cells, 48 hours exposure, MTT, concentration that inhibits cell viability by 50%, read-out: IC50 (nM) MTT RS4
Protocol: The cytotoxicity studies were carried out on the RS4;11 leukaemia tumour line.
The cells are distributed onto microplates and exposed to the test compounds for 48 hours.

Chain of Bcl-2 protein (P10415 whole entry): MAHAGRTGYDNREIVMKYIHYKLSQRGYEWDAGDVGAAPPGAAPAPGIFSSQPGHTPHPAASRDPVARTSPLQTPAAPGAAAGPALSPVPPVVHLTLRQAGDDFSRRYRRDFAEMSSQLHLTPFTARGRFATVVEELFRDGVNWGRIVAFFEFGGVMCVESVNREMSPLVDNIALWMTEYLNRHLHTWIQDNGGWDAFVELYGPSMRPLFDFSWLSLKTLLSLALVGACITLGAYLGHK

| SMILES | IC50 (Bcl-2 protein) [nM] | IC50 [1] [nM] |
| --- | --- | --- |
| COc1ccc(C(=O)N2Cc3ccccc3C[C@H]2CN2CCOCC2)c(-c2cc(C(=O)N(c3ccc(O)cc3)c3ccc4c(ccn4C)c3)c3ccccn23)c1 [Example 71, N-(4-Hydroxyphenyl)-3-{5-methoxy-2-[((3S)-3-(4-morpholinylmethyl)-3,4-dihydro-2(1H)-isoquinolinyl)carbonyl]phenyl}-N-(1-methyl-1H-indol-5-yl)-1-indolizine carboxamide hydrochloride] | 21 | 24.4 |
| Cc1ccc(N(C(=O)c2cc(-c3cc(Cl)ccc3C(=O)N3Cc4ccccc4C[C@H]3CN3CCOCC3)n3c2CCCC3)c2ccc(O)cc2)cc1Cl [Example 97, N-(3-Chloro-4-methylphenyl)-3-(5-chloro-2-{[(3S)-3-(morpholin-4-ylmethyl)-3,4-dihydroisoquinolin-2(1H)-yl]carbonyl}phenyl)-N-(4-hydroxyphenyl)-5,6,7,8-tetrahydroindolizine-1-carboxamide hydrochloride] | 20 | 45.4 |
| Cn1ccc2cc(N(C(=O)c3cc(-c4cc(OC(F)(F)F)ccc4C(=O)N4Cc5ccccc5C[C@H]4CN4CCOCC4)n4c3CCCC4)c3ccc(O)cc3)ccc21 [Example 48, N-(4-Hydroxyphenyl)-N-(1-methyl-1H-indol-5-yl)-3-[2-[((3S)-3-(4-morpholinylmethyl)-3,4-dihydro-2(1H)-isoquinolinyl)carbonyl]-5-(trifluoromethoxy)-phenyl]-5,6,7,8-tetrahydro-1-indolizine carboxamide hydrochloride] | 130 | 229 |
| CN1CCOc2cc(N(C(=O)c3cc(-c4cc5c(cc4C(=O)N4Cc6ccccc6C[C@H]4CN4CCOCC4)OCCO5)n4c3CCCC4)c3ccc(O)cc3)ccc21 [Example 41, N-(4-Hydroxyphenyl)-N-(4-methyl-3,4-dihydro-2H-1,4-benzoxazin-7-yl)-3-{7-[((3S)-3-(4-morpholinylmethyl)-3,4-dihydro-2(1H)-isoquinolinyl)carbonyl]-2,3-dihydro-1,4-benzodioxin-6-yl}-5,6,7,8-tetrahydro-1-indolizine carboxamide hydrochloride] | 26 | 44 |

Stronger by IC50 (Bcl-2 protein), values ahead:

| IC50 (Bcl-2 protein) [nM] | SMILES | IC50 [1] [nM] |
| --- | --- | --- |
| 5 | Cc1ccc(N(C(=O)c2cc(-c3cc4c(cc3C(=O)N3Cc5ccccc5C[C@H]3CN3CCOCC3)OCO4)n3c2COCC3)c2ccc(O)cc2)cc1F [Example 92, N-(3-Fluoro-4-methylphenyl)-N-(4-hydroxyphenyl)-6-(6-{[(3S)-3-(morpholin-4-ylmethyl)-3,4-dihydroisoquinolin-2(1H)-yl]carbonyl}-1,3-benzodioxol-5-yl)-3,4-dihydro-1H-pyrrolo[2,1-c][1,4]oxazine-8-carboxamide hydrochloride] | 40.2 |
| 6 | Cc1ccc(C(=O)N2Cc3ccccc3C[C@H]2CN2CCOCC2)c(-c2cc(C(=O)N(c3ccc(O)cc3)c3ccc4c(ccn4C)c3)c3n2CCCC3)c1 [Example 95, N-(4-Hydroxyphenyl)-N-(1-methyl-1H-indol-5-yl)-3-(5-methyl-2-{[(3S)-3-(morpholin-4-ylmethyl)-3,4-dihydroisoquinolin-2(1H)-yl]carbonyl}phenyl)-5,6,7,8-tetrahydroindolizine-1-carboxamide hydrochloride] | 13.5 |
| 16 | O=C(c1cc(-c2cc3c(cc2C(=O)N2Cc4ccccc4C[C@H]2CN2CCOCC2)OCO3)n2c1CC(O)CC2)N(c1ccccc1)c1ccc(O)cc1 (stereo partly drawn) [Example 113, 7-Hydroxy-N-(4-hydroxyphenyl)-3-(6-{[(3S)-3-(morpholin-4-ylmethyl)-3,4-dihydroisoquinolin-2(1H)-yl]carbonyl}-1,3-benzodioxol-5-yl)-N-phenyl-5,6,7,8-tetrahydroindolizine-1-carboxamide hydrochloride] | 190 |
